Test results reported in ChEMBL document CHEMBL4376829, “Discovery and biological evaluation of vinylsulfonamide derivatives as highly potent, covalent TEAD autopalmitoylation inhibitors” (Eur J Med Chem, 2019).
The source made the active and inactive calls. No cut-off for these calls is given here.

Legend:
[1] = molecular target: T1, Transcriptional enhancer factor TEF-3 (Homo sapiens, UniProt Q15561); experiment: (§1) Inhibition of N-terminal His6 tagged human TEAD4-YBD (217 to 434 residues) expressed in Escherichia coli C43 (DE3) cells assessed as reduction in autopalmitoylation at 800 nM preincubated for 2 hrs followed by palmitoyl alkyne-coenzyme A addition and measured after 30 mins by immunoblot analysis relative to control
[2] = molecular target: T1, Transcriptional enhancer factor TEF-3; experiment: as §1, with “200” for “800”, “mins” for “mins by”
[3] = molecular target: T1, Transcriptional enhancer factor TEF-3; experiment: Binding affinity to TEAD4 (unknown origin) assessed as induction of protein folding by SYPRO-dye based thermal shift assay
[4] = molecular target: T1, Transcriptional enhancer factor TEF-3; experiment: Competitive binding affinity to N-terminal His6 tagged human TEAD4 (217 to 434 residues) expressed in Escherichia coli C43 (DE3) cells at 200 uM in presence of palmitoyl CoA by CPMG NMR spectral analysis
[5] = molecular target: T1, Transcriptional enhancer factor TEF-3; experiment: Binding affinity to N-terminal His6 tagged human TEAD4-YBD (217 to 434 residues) expressed in Escherichia coli C43 (DE3) cells by SPR analysis
[6] = molecular target: T1, Transcriptional enhancer factor TEF-3; experiment: Binding affinity to TEAD4 (unknown origin) assessed as change in melting temperature at protein to compound ratio of 1:40 by SYPRO orange dye based thermal shift assay
[7] = molecular target: T1, Transcriptional enhancer factor TEF-3; experiment: Binding affinity to TEAD4 (unknown origin) assessed as change in melting temperature by fluorescence based thermal shift assay
[8] = molecular target: T1, Transcriptional enhancer factor TEF-3; experiment: Binding affinity to N-terminal His6 tagged human TEAD4 (217 to 434 residues) expressed in Escherichia coli C43 (DE3) cells at 200 uM by STD NMR spectral analysis
[9] = molecular target: T1, Transcriptional enhancer factor TEF-3; experiment: Binding affinity to N-terminal His6 tagged human TEAD4 (217 to 434 residues) expressed in Escherichia coli C43 (DE3) cells at 200 uM by CPMG NMR spectral analysis
[10] = molecular target: T1, Transcriptional enhancer factor TEF-3; experiment: Inhibition of N-terminal His6-tagged human TEAD4 YAP binding domain (217 to 434 residues) expressed in Escherichia coli C43 (DE3) cells assessed reduction in autopalmitoylation preincubated for 2 hrs followed by palmitoyl alkyne coenzyme A addition and measured after 30 mins by immunoblot analysis
[11] = molecular target: T1, Transcriptional enhancer factor TEF-3; experiment: Binding affinity to TEAD4 (unknown origin) assessed as change in melting temperature at protein to compound ratio of 1:10 by SYPRO orange dye based thermal shift assay
[12] = molecular target: T1, Transcriptional enhancer factor TEF-3; experiment: Inhibition of N-terminal His6 tagged human TEAD4-YBD (217 to 434 residues) expressed in Escherichia coli C43 (DE3) cells assessed as reduction in autopalmitoylation at 50 uM preincubated for 2 hrs followed by palmitoyl alkyne-coenzyme A addition and measured after 30 mins by immunoblot analysis
[13] = molecular target: T1, Transcriptional enhancer factor TEF-3; experiment: Binding affinity to N-terminal His6 tagged human TEAD4 (217 to 434 residues) expressed in Escherichia coli C43 (DE3) cells incubated for 30 mins by isothermal Titration Calorimetry

T1 sequence (Q15561 whole entry, the tested form may be a part): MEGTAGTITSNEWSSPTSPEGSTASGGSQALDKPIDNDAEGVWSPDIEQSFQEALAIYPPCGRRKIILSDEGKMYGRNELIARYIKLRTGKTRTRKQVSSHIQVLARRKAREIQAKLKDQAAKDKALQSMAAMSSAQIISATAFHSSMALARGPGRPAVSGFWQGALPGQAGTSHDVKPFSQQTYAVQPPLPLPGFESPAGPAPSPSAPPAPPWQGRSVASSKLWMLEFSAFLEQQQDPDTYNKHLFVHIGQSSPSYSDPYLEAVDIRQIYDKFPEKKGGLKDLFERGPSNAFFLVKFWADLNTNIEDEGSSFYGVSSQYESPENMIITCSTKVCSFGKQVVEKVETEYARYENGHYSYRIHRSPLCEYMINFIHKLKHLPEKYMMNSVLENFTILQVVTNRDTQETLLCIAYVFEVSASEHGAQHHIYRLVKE

Structure (SMILES)	inhibition [1] [%]	inhibition [2] [%]	further results
C=CS(=O)(=O)Nc1ccc2c(c1)CCN(C(=O)c1ccccc1)C2	25.4	5.4	–
C=CS(=O)(=O)Oc1ccc(Oc2ccccc2)cc1	94.8	62.2	–
C=CS(=O)(=O)Nc1ccc(Cc2ccc3ccccc3c2)c(O)c1	92.1	44.3	–
C=CS(=O)(=O)Nc1ccccc1Oc1ccccc1	25.2	-4.1	–
C=CS(=O)(=O)Nc1ccc(Cc2ccccc2)cc1	92.5	59.2	–
Cc1ccc(Oc2ccc(N)cc2)cc1	–	–	Activity [3]: Dose-dependent effect; Activity [4]: Active; Kd [5]: 41 µM; ΔTm [6]: 4.5 °C; Activity [7]: Dose-dependent effect; Activity [8]: Active; Activity [9]: Active; IC50 [10]: 32 µM; inhibition [10]: Dose-dependent effect; ΔTm [11]: 3.1 °C
C=CS(=O)(=O)Nc1ccc(Cc2ccc3ccccc3c2)c(OC2CCNCC2)c1	6.5	1.2	inhibition [12]: Active
C=CS(=O)(=O)Nc1ccc(OCc2ccccc2)cc1	52.5	21	–
C=CS(=O)(=O)Nc1ccc(NC(=O)c2ccc3ccccc3c2)cc1	35	15.6	–
C=CS(=O)(=O)Nc1ccc(Cc2ccc3ccc(O)cc3c2)cc1	82.5	18.9	–
C=CS(=O)(=O)Nc1ccc2ccccc2c1	1.1	8.4	–
C=CS(=O)(=O)Nc1ccc(C(=O)Nc2ccc3c(c2)CCNC3)cc1	10.1	0.3	–
O=C(O)c1ccccc1Nc1cccc(C(F)(F)F)c1 [FLUFENAMIC ACID]	–	–	Kd [5]: 84 µM; IC50 [10]: 54 µM; inhibition [10]: Dose-dependent effect; Kd [13]: 73 µM
